# Results from PubChem BioAssay AID977614 (Broad Institute, 2014).
# Active and inactive are the calls of the source.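 How the source made its calls: active means parasite count per well reduced by over 3 SD from the mean, with host cell number above 80% of untreated; inactive means the rest.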
# Tested on: L. donovani amastigotes in THP-1 macrophages, DAPI imaging, 72 h
# Assay: L. donovani intracellular amastigote growth inhibitors, imaging, THP-1 host macrophages, single concentration (AID 977614);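 further: signal is the parasite per host cell ratio from DAPI stained kinetoplasts and nuclei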
row,Compound,AC50
1,O=C(NC[C@@H]1[C@@H](c2ccccc2)[C@@H](CO)N1Cc1ccccn1)C1CCCC1,> 10 µM (inactive)
2,C[C@@H]1CN([C@@H](C)CO)C(=O)CCCn2nncc2CO[C@H]1CN(C)C(=O)c1cc(-c2ccccc2)on1,> 10 µM (inactive)
3,Cc1noc(C)c1NC(=O)N(C)C[C@H]1OCc2cnnn2CCCC(=O)N([C@@H](C)CO)C[C@@H]1C,> 10 µM (inactive)
4,COCC(=O)N1[C@@H]2CN(C)c3ccccc3[C@@H]2[C@@H]1CO,> 10 µM (inactive)
5,C[C@H](CO)N1C[C@H](C)[C@@H](CN(C)C(=O)Nc2ccc3c(c2)OCCO3)OCc2cnnn2CCCC1=O,> 10 µM (inactive)
6,C[C@@H]1CN([C@H](C)CO)C(=O)CCCn2cc(nn2)CO[C@@H]1CN(C)C(=O)c1ccc(N2CCN(C)CC2)cc1,> 10 µM (inactive)
7,O=C(Nc1cccc(F)c1)N1C[C@@H]2[C@H](c3ccccc31)[C@@H](CO)N2C(=O)Cc1ccccn1,> 10 µM (inactive)
8,C[C@@H]1CN([C@@H](C)CO)C(=O)CCCn2cc(nn2)CO[C@H]1CN(C)C(=O)NC1CCCCC1,> 10 µM (inactive)
9,O=C(CC1CC1)N1[C@@H](CO)[C@@H]2c3ccccc3N(S(=O)(=O)c3ccccc3F)C[C@@H]21,> 10 µM (inactive)
10,CC(C)NC(=O)N1[C@@H]2CNc3ccccc3[C@@H]2[C@@H]1CO,> 10 µM (inactive)
11,COc1ccccc1NC(=O)N1C[C@H]2[C@@H](c3ccccc31)[C@@H](CO)N2C(=O)C1CCCC1,> 10 µM (inactive)
12,C[C@H](CO)N1C[C@H](C)[C@H](CN(C)Cc2ccc(C(=O)Nc3ccccc3N)cc2)OCc2cnnn2CCCC1=O,> 10 µM (inactive)
13,COCC(=O)N(C)C[C@H]1[C@H](c2ccccc2)[C@H](CO)N1C(=O)Cc1ccncc1,> 10 µM (inactive)
14,CCC(=O)N1[C@@H](CO)[C@H](c2ccccc2)[C@@H]1CN(C)C(=O)CN1CCOCC1,> 10 µM (inactive)
15,CC(=O)N1[C@H](CNC(=O)C2CC2)[C@@H](c2ccc(-c3ccccc3)cc2)[C@@H]1CO,> 10 µM (inactive)
16,O=C(CN1CCOCC1)NC[C@@H]1N[C@@H](CO)[C@H]1c1ccc(-c2ccccc2)cc1,> 10 µM (inactive)
17,CNC[C@H]1OCc2cn(nn2)CCCC(=O)N([C@H](C)CO)C[C@H]1C,> 10 µM (inactive)
18,C[C@H](CO)N1C[C@H](C)[C@H](CN(C)C(=O)Nc2cccc3ccccc23)OCc2cn(nn2)CCCC1=O,> 10 µM (inactive)
19,CCCNC(=O)N1[C@H](CO)[C@@H]2c3ccccc3N(C(=O)c3ccncc3)C[C@@H]21,> 10 µM (inactive)
20,CN1C[C@H]2[C@@H](c3ccccc31)[C@@H](CO)N2Cc1ccccc1Cl,> 10 µM (inactive)
21,C[C@@H]1CN([C@@H](C)CO)C(=O)CCCn2cc(nn2)CO[C@H]1CN(C)C(=O)CCC(F)(F)F,> 10 µM (inactive)
22,COCC(=O)N(C[C@@H]1[C@@H](c2ccccc2)[C@@H](CO)N1C(=O)NC(C)C)C(C)C,> 10 µM (inactive)
23,CCC(=O)N1[C@@H](CO)[C@@H]2c3ccccc3N(C(=O)Nc3ccc(Cl)cc3)C[C@@H]21,> 10 µM (inactive)
24,CCN(C[C@H]1[C@H](c2ccccc2)[C@@H](CO)N1CC1CC1)C(=O)c1ccccn1,> 10 µM (inactive)
25,CCCNC[C@H]1[C@@H](c2ccc(-c3cccc(C#N)c3)cc2)[C@@H](CO)N1C(C)=O,> 10 µM (inactive)
26,C[C@@H]1CN([C@@H](C)CO)C(=O)CCCn2cc(nn2)CO[C@@H]1CN(C)S(=O)(=O)c1ccc(-n2cccn2)cc1,> 10 µM (inactive)

row,Compound,AC50
1,CCN(C[C@H]1[C@H](c2ccccc2)[C@@H](CO)N1C(C)=O)C(=O)NC1CCCC1,> 10 µM (inactive)
2,COc1cccc(NC(=O)N2[C@@H](CO)[C@@H](c3ccccc3)[C@@H]2CNCC(C)C)c1,> 10 µM (inactive)
3,CCN(C[C@@H]1N[C@H](CO)[C@H]1c1ccccc1)C(=O)c1ccncc1,> 10 µM (inactive)
4,C/C=C/c1ccc([C@H]2[C@@H](CO)N[C@@H]2CNC(=O)C2CC2)cc1,> 10 µM (inactive)
5,CCN(C[C@@H]1[C@@H](c2ccccc2)[C@H](CO)N1CC1CC1)C(=O)c1ccccn1,> 10 µM (inactive)
6,O=C(Nc1ccccc1Cl)N1C[C@H]2[C@@H](c3ccccc31)[C@H](CO)N2C(=O)c1cccnc1,> 10 µM (inactive)
7,C[C@@H]1CN([C@@H](C)CO)C(=O)CCCn2nncc2CO[C@H]1CN(C)C(=O)Nc1ccnc(N2CCOCC2)c1,> 10 µM (inactive)
8,C[C@H](CO)N1C[C@H](C)[C@@H](CN(C)C(=O)NC2CCCC2)OCc2cnnn2CCCC1=O,> 10 µM (inactive)
9,C[C@H]1CN([C@@H](C)CO)C(=O)CCCn2nncc2CO[C@H]1CN(C)C(=O)Oc1cccc2ccccc12,> 10 µM (inactive)
10,O=C(c1cccc(F)c1)N1C[C@@H]2[C@H](c3ccccc31)[C@H](CO)N2Cc1cocn1,> 10 µM (inactive)
11,O=C(NC[C@H]1[C@H](c2ccccc2)[C@H](CO)N1C(=O)Cc1ccncc1)C1CCC1,> 10 µM (inactive)
12,CC(C)N(C[C@@H]1[C@H](c2ccccc2)[C@@H](CO)N1S(C)(=O)=O)C(=O)CN(C)C,> 10 µM (inactive)
13,COc1ccccc1CN1[C@@H](CO)[C@@H]2c3ccccc3N(C(=O)C3CCOCC3)C[C@@H]21,> 10 µM (inactive)
14,COc1ccccc1NC(=O)N1C[C@H]2[C@@H](c3ccccc31)[C@H](CO)N2C(=O)C1CCCC1,> 10 µM (inactive)
15,CCC(=O)N1C[C@@H]2[C@H](c3ccccc31)[C@@H](CO)N2C(=O)CC1CC1,> 10 µM (inactive)
16,C[C@@H]1CN([C@@H](C)CO)C(=O)CCCn2cc(nn2)CO[C@@H]1CN(C)C(=O)Nc1ccc2c(c1)OCO2,> 10 µM (inactive)
17,O=C(c1ccncc1)N1C[C@H]2[C@@H](c3ccccc31)[C@H](CO)N2Cc1ccccc1F,> 10 µM (inactive)
18,C[C@@H]1CN([C@@H](C)CO)C(=O)CCCn2cc(nn2)CO[C@@H]1CN(C)C(=O)Nc1cccc2ccccc12,> 10 µM (inactive)
19,CC(C)N(C[C@H]1[C@H](c2ccccc2)[C@H](CO)N1S(C)(=O)=O)C(=O)CN(C)C,> 10 µM (inactive)
20,CNC[C@H]1OCc2cnnn2CCCC(=O)N([C@H](C)CO)C[C@@H]1C,> 10 µM (inactive)
21,C[C@@H]1CN([C@H](C)CO)C(=O)CCCn2nncc2CO[C@H]1CN(C)Cc1ccccc1C(=O)O,> 10 µM (inactive)
22,COc1ccc(NC(=O)N2C[C@H]3[C@@H](c4ccccc42)[C@H](CO)N3Cc2ccccn2)cc1,> 10 µM (inactive)
23,O=C(Nc1ccc(F)cc1)N1C[C@H]2[C@@H](c3ccccc31)[C@@H](CO)N2C(=O)c1ccncc1,> 10 µM (inactive)
24,CCCNC[C@H]1[C@@H](c2ccc(C3=CCCCC3)cc2)[C@@H](CO)N1C(=O)C1CCC1,> 10 µM (inactive)
25,CCN(C[C@H]1[C@H](c2ccc(C3=CCCCC3)cc2)[C@H](CO)N1CC1CC1)C(C)=O,> 10 µM (inactive)
26,CCN(C[C@@H]1[C@@H](c2ccccc2)[C@H](CO)N1C(=O)COC)S(C)(=O)=O,> 10 µM (inactive)

row,Compound,AC50
1,C[C@H]1CN([C@@H](C)CO)C(=O)CCCn2nncc2CO[C@H]1CN(C)C(=O)Nc1ccccc1C(F)(F)F,> 10 µM (inactive)
2,O=C(c1ccncc1)N1C[C@@H]2[C@H](c3ccccc31)[C@@H](CO)N2C(=O)CN1CCOCC1,> 10 µM (inactive)
3,C/C=C/c1ccc([C@@H]2[C@@H](CN(C)C(C)=O)N(C(=O)NC(C)C)[C@H]2CO)cc1,> 10 µM (inactive)
4,C/C=C/c1ccc([C@@H]2[C@H](CO)N(C(C)=O)[C@H]2CN(CC)C(=O)CN(C)C)cc1,> 10 µM (inactive)
5,O=C(Nc1ccc(F)cc1)N1[C@@H](CO)[C@@H]2c3ccccc3NC[C@@H]21,> 10 µM (inactive)
6,COCC(=O)N1C[C@H]2[C@@H](c3ccccc31)[C@H](CO)N2C(=O)c1ccccc1F,> 10 µM (inactive)
7,CCC(=O)N1[C@H](CO)[C@H](c2ccccc2)[C@@H]1CN(CC)C(=O)c1cccc(F)c1,> 10 µM (inactive)
8,CC(=O)N(CC1CCC1)C[C@H]1N[C@H](CO)[C@@H]1c1ccc(C2=CCCC2)cc1,> 10 µM (inactive)
9,Cc1noc(C)c1S(=O)(=O)N(C)C[C@@H]1OCc2cnnn2CCCC(=O)N([C@@H](C)CO)C[C@@H]1C,> 10 µM (inactive)
10,O=C(C1CCCCC1)N1[C@@H](CO)[C@@H]2c3ccccc3N(S(=O)(=O)c3ccccc3)C[C@@H]21,> 10 µM (inactive)
11,CCN(C[C@H]1[C@H](c2ccccc2)[C@@H](CO)N1C(=O)COC)S(C)(=O)=O,> 10 µM (inactive)
12,C[C@H](CO)N1C[C@H](C)[C@H](CN(C)S(=O)(=O)c2ccc3c(c2)OCCCO3)OCc2cnnn2CCCC1=O,> 10 µM (inactive)
13,O=S(=O)(NC[C@@H]1[C@H](c2ccccc2)[C@H](CO)N1CC1CC1)c1ccccc1,> 10 µM (inactive)
14,CN(C[C@H]1[C@@H](c2ccccc2)[C@H](CO)N1Cc1ccccn1)S(C)(=O)=O,> 10 µM (inactive)
15,COc1ccc(CN2[C@H](CO)[C@@H]3c4ccccc4N(C(=O)NC(C)C)C[C@@H]32)cc1,> 10 µM (inactive)
16,C[C@@H]1CN([C@H](C)CO)C(=O)CCCn2nncc2CO[C@@H]1CN(C)S(=O)(=O)c1ccccc1C#N,> 10 µM (inactive)
17,CC(=O)NC[C@@H]1[C@@H](c2ccc(C#Cc3ccccc3F)cc2)[C@@H](CO)N1C(C)=O,> 10 µM (inactive)
18,COc1cccc(C(=O)N2C[C@H]3[C@@H](c4ccccc42)[C@H](CO)N3C(=O)c2cccc(F)c2)c1,> 10 µM (inactive)
19,COc1cccc(C(=O)N2C[C@@H]3[C@H](c4ccccc42)[C@@H](CO)N3C(=O)c2cccc(F)c2)c1,> 10 µM (inactive)
20,CC(=O)NC[C@H]1[C@@H](c2ccc(C#Cc3ccccc3F)cc2)[C@@H](CO)N1C(C)=O,> 10 µM (inactive)
21,O=C(c1ccccc1)N1C[C@@H]2[C@H](c3ccccc31)[C@H](CO)N2Cc1ccccn1,> 10 µM (inactive)
22,C[C@H](CO)N1C[C@H](C)[C@H](CN(C)C(=O)Nc2ccc3c(c2)OCCO3)OCc2cnnn2CCCC1=O,> 10 µM (inactive)
23,O=C(C1CCCCC1)N1[C@H](CO)[C@@H]2c3ccccc3NC[C@@H]21,> 10 µM (inactive)
24,COCC(=O)N(C)C[C@H]1[C@H](c2ccccc2)[C@@H](CO)N1C(=O)Cc1ccncc1,> 10 µM (inactive)
